Reference: article PMC8550792, “Evolution of kinase polypharmacology across HSP90 drug discovery” (Cell Chemical Biology, 2021)

Key:
Assay in all cases: biochemical
Assay type in all cases: biochemical
382 unique human kinases [1] = target: T1, 382 unique human kinases (Homo sapiens, UniProt O75460); settings: kinase ERN1/IRE1, compound 10 uM; for remaining activity at 10 µM: read-out: % Enzyme Activity (relative to DMSO controls)
T1 construct: purchased Reaction Biology (HotSpot contract assay)

382 unique human kinases [2] = target: T2, 382 unique human kinases (Homo sapiens, UniProt O75676); settings: kinase MSK2/RPS6KA4, compound 10 uM; for remaining activity at 10 µM: read-out: % Enzyme Activity (relative to DMSO controls)
T2 construct: purchased Reaction Biology (HotSpot contract assay)

382 unique human kinases [3] = target: T3, 382 unique human kinases (Homo sapiens, UniProt P07949); settings: kinase RET, compound 10 uM; for remaining activity at 10 µM: read-out: % Enzyme Activity (relative to DMSO controls)
T3 construct: purchased Reaction Biology (HotSpot contract assay)

382 unique human kinases [4] = target: T4, 382 unique human kinases (Homo sapiens, UniProt P07949, L790F); settings: RET (L790F), 10 uM; for remaining activity at 10 µM: read-out: % Enzyme Activity (relative to DMSO controls)
T4 construct: purchased Reaction Biology (HotSpot contract assay)

382 unique human kinases [5] = target: T5, 382 unique human kinases (Homo sapiens, UniProt P08581, D1228N); settings: c-MET (D1228N), compound at 10 uM, duplicate values; for remaining activity at 10 µM: read-out: % Enzyme Activity (relative to DMSO controls)
T5 construct: purchased Reaction Biology (HotSpot contract assay)

382 unique human kinases [6] = target: T6, 382 unique human kinases (Homo sapiens, UniProt P12931, T341M); settings: kinase c-Src (T341M), compound 10 uM; for remaining activity at 10 µM: read-out: % Enzyme Activity (relative to DMSO controls)
T6 construct: purchased Reaction Biology (HotSpot contract assay)

382 unique human kinases [7] = target: T7, 382 unique human kinases (Homo sapiens, UniProt P14616); settings: kinase IRR/INSRR, compound 10 uM; for remaining activity at 10 µM: read-out: % Enzyme Activity (relative to DMSO controls)
T7 construct: purchased Reaction Biology (HotSpot contract assay)

382 unique human kinases [8] = target: T8, 382 unique human kinases (Homo sapiens, UniProt P49759); settings: CLK1, 10 uM; for remaining activity at 10 µM: read-out: % Enzyme Activity (relative to DMSO controls)
T8 construct: purchased Reaction Biology (HotSpot contract assay)

382 unique human kinases [9] = target: T9, 382 unique human kinases (Homo sapiens, UniProt Q16539); settings: kinase P38a/MAPK14, compound 10 uM; for remaining activity at 10 µM: read-out: % Enzyme Activity (relative to DMSO controls)
T9 construct: purchased Reaction Biology (HotSpot contract assay)

382 unique human kinases [10] = target: T10, 382 unique human kinases (Homo sapiens, UniProt Q8TD08); settings: kinase ERK7/MAPK15, compound 10 uM; for remaining activity at 10 µM: read-out: % Enzyme Activity (relative to DMSO controls)
T10 construct: purchased Reaction Biology (HotSpot contract assay)
T10 sequence (Q8TD08 1-544): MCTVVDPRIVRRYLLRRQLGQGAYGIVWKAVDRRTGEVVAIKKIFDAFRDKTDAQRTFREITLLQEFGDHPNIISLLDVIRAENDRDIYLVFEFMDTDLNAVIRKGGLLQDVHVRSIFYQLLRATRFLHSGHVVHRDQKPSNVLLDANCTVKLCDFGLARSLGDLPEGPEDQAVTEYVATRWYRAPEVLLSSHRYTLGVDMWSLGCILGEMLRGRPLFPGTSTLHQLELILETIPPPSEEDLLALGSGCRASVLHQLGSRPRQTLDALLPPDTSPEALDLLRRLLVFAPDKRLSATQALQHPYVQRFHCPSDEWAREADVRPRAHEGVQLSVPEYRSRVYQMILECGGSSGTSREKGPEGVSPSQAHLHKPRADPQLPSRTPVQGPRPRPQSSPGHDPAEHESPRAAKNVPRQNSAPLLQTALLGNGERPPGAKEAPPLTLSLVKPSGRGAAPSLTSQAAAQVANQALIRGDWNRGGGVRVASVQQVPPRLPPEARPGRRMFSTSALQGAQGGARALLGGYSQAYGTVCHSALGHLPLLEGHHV

382 unique human kinases [11] = target: T11, 382 unique human kinases (Homo sapiens, UniProt Q9UM73, R1275Q); settings: ALK (R1275Q), 10 uM; for remaining activity at 10 µM: read-out: % Enzyme Activity (relative to DMSO controls)
T11 construct: purchased Reaction Biology (HotSpot contract assay)

382 unique human kinases [12] = target: T12, 382 unique human kinases (Homo sapiens, UniProt Q9Y5S2); settings: MRCKb/CDC42BPB, 10 uM; for remaining activity at 10 µM: read-out: % Enzyme Activity (relative to DMSO controls)
T12 construct: purchased Reaction Biology (HotSpot contract assay)

382 unique human kinases [13] = target: T13, 382 unique human kinases (Homo sapiens, UniProt P16234, V561D); settings: PDGFRa (V561D), 10 uM; for remaining activity at 10 µM: read-out: % Enzyme Activity (relative to DMSO controls)
T13 construct: purchased Reaction Biology (HotSpot contract assay)

382 unique human kinases [14] = target: T14, 382 unique human kinases (Homo sapiens, UniProt P31751, E17K); settings: AKT2 (E17K), 10 uM; for remaining activity at 10 µM: read-out: % Enzyme Activity (relative to DMSO controls)
T14 construct: purchased Reaction Biology (HotSpot contract assay)

382 unique human kinases [15] = target: T15, 382 unique human kinases (Homo sapiens, UniProt P53671); settings: LIMK2, [ATP] 5 µM, compound 10 uM; for remaining activity at 10 µM: read-out: % Enzyme Activity (relative to DMSO controls)
T15 construct: purchased Reaction Biology (HotSpot contract assay)

382 unique human kinases [16] = target: T16, 382 unique human kinases (Homo sapiens, UniProt Q9NYL2); settings: ZAK/MLTK, [ATP] 50 µM, compound 10 uM; for remaining activity at 10 µM: read-out: % Enzyme Activity (relative to DMSO controls)
T16 construct: purchased Reaction Biology (HotSpot contract assay)

382 unique human kinases [17] = target: T17, 382 unique human kinases (Homo sapiens, UniProt Q9UBE8); settings: NLK, 10 uM; for remaining activity at 10 µM: read-out: % Enzyme Activity (relative to DMSO controls)
T17 construct: purchased Reaction Biology (HotSpot contract assay)
T17 sequence (Q9UBE8 1-527): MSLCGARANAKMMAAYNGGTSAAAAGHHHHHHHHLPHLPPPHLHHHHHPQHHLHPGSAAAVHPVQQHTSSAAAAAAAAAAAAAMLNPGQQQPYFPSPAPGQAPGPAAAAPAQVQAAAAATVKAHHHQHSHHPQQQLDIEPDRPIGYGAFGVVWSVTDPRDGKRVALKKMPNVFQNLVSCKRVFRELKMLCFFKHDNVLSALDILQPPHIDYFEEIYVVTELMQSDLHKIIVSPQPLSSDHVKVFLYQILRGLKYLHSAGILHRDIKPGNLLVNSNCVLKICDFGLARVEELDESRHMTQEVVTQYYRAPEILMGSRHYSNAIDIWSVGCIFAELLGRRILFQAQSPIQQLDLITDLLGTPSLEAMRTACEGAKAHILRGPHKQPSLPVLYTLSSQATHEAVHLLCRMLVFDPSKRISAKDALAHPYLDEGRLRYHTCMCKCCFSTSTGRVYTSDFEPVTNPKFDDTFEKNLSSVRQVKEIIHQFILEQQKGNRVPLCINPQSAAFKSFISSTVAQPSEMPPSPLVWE

T1 sequence (O75460 19-977): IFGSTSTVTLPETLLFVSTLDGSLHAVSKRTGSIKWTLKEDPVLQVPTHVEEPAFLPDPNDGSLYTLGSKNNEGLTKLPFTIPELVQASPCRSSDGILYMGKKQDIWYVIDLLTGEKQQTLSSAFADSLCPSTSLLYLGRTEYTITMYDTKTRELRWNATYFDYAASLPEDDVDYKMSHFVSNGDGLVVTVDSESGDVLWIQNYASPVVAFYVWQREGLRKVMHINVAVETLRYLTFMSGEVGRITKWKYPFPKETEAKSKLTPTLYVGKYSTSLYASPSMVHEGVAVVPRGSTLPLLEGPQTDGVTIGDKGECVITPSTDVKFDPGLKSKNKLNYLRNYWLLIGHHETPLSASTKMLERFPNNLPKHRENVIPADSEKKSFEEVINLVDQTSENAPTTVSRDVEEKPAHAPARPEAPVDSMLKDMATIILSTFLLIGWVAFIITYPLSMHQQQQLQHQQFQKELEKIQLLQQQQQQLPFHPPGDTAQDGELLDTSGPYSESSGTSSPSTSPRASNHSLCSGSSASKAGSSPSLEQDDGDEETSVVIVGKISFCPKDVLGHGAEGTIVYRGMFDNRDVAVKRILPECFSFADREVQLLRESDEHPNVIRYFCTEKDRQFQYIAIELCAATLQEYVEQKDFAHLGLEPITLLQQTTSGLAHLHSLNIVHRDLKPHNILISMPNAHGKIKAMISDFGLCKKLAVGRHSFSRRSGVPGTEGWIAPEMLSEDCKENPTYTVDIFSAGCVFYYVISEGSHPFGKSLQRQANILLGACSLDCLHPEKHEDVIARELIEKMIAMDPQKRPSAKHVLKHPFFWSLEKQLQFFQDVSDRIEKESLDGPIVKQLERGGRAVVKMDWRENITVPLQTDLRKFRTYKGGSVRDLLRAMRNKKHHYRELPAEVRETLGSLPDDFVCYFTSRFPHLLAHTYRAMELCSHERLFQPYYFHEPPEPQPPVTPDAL
T3 sequence (P07949 29-1114): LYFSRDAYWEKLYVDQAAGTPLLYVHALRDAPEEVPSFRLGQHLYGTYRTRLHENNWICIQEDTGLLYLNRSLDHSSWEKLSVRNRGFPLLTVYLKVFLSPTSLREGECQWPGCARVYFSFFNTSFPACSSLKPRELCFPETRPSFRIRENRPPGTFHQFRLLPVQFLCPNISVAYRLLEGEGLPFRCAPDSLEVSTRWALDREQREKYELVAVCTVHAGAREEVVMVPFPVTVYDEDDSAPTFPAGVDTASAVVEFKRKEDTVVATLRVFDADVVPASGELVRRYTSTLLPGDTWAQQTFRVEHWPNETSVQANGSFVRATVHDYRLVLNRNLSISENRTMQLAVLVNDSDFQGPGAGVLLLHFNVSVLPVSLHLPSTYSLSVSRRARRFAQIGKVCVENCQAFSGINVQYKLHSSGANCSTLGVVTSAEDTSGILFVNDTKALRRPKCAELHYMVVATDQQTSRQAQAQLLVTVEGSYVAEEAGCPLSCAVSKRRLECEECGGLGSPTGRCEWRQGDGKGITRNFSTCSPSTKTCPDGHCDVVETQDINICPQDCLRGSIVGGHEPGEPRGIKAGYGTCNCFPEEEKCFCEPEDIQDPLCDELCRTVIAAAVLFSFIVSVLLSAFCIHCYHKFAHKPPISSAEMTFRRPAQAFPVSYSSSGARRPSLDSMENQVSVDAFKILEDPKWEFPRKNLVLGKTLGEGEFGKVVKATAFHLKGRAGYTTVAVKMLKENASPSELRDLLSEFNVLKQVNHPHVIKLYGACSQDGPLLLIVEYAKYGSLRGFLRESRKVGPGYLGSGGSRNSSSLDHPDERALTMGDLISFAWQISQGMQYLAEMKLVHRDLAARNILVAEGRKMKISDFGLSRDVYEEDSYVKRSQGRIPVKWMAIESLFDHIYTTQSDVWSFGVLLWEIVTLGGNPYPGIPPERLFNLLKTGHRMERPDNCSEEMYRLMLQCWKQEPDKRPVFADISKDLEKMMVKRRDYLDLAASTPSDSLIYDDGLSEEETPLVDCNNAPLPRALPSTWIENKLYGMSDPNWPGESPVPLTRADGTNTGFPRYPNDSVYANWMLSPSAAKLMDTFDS
T12 sequence (Q9Y5S2 whole entry): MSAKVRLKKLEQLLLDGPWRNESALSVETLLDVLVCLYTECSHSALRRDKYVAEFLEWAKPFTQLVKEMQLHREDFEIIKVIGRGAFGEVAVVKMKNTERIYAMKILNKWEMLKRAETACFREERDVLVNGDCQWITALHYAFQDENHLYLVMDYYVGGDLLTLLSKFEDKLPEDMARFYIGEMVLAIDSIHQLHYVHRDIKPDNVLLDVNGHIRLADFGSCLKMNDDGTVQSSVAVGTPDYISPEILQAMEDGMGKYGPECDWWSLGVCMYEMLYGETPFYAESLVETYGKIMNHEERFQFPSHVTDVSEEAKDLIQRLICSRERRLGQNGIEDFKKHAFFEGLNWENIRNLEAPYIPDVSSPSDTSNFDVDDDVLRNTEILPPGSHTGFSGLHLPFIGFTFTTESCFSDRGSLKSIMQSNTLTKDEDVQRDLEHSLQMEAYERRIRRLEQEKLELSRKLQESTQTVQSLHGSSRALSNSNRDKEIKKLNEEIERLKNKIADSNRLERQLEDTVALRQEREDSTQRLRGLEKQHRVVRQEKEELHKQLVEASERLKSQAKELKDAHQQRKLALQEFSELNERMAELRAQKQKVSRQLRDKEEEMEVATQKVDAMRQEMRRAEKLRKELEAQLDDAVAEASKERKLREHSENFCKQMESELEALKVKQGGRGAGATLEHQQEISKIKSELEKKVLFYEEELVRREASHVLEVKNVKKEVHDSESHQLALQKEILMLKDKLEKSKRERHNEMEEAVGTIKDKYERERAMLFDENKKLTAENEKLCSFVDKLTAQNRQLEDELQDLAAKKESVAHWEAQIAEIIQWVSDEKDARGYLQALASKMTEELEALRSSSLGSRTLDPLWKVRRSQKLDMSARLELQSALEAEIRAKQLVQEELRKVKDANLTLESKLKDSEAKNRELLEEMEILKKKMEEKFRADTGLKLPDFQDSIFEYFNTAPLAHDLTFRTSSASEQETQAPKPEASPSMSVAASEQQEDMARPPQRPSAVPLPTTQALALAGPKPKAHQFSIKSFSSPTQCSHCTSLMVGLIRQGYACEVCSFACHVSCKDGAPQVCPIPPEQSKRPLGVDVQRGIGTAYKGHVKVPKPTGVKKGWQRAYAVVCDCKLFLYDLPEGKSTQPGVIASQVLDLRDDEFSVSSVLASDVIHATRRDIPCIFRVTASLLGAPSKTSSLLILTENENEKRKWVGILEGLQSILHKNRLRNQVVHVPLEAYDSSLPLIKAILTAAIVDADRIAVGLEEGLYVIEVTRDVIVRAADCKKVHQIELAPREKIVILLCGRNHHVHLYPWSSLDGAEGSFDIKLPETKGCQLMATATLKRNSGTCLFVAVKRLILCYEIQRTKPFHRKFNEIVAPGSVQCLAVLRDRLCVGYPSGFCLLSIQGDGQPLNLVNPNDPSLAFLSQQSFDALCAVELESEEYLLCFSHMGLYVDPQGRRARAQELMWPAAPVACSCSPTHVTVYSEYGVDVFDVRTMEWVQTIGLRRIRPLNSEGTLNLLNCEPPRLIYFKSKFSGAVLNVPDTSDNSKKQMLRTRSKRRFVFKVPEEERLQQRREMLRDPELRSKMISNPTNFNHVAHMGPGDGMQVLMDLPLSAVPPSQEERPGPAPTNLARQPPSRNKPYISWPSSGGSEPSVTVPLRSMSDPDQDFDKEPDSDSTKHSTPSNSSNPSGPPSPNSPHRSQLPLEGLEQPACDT
T8 sequence (P49759 whole entry): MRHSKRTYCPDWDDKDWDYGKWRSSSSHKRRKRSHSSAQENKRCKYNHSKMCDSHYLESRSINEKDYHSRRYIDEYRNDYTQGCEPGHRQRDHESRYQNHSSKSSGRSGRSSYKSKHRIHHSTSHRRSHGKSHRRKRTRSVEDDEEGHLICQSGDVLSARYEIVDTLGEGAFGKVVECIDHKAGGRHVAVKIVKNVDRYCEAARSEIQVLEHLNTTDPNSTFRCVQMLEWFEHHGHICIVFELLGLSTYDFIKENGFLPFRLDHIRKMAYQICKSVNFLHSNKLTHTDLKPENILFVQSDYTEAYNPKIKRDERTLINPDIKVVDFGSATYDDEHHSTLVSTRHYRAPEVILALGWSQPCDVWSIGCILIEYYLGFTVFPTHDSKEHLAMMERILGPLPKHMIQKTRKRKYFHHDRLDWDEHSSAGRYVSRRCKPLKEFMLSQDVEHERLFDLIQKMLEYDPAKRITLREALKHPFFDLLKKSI
T4 sequence (P07949 29-1114 L790F): as the sequence (P07949 29-1114) above, with L762F counted along it
T2 sequence (O75676 whole entry): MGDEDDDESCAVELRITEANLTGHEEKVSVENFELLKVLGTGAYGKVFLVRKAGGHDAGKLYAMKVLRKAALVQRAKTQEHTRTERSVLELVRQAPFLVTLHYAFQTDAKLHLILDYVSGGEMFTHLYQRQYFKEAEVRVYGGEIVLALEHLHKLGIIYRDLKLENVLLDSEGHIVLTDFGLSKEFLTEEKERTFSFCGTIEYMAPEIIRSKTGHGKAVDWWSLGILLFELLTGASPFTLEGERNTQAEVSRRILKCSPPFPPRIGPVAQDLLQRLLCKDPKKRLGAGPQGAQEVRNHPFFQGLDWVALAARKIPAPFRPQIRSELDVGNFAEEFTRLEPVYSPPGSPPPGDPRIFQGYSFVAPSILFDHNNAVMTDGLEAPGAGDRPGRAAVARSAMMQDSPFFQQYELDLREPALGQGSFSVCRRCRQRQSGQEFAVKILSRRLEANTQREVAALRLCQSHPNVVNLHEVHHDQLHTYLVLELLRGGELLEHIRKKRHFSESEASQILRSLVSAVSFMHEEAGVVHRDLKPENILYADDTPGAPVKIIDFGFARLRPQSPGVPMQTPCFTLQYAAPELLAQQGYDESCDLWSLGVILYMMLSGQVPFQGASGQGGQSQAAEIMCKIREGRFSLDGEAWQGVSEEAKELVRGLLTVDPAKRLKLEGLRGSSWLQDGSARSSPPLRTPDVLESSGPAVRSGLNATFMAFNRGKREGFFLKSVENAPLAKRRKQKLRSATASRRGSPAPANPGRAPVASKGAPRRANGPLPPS

| Compound | remaining activity at 10 µM (382 unique human kinases [1]) [%] | remaining activity at 10 µM (382 unique human kinases [2]) [%] | remaining activity at 10 µM (382 unique human kinases [3]) [%] | remaining activity at 10 µM (382 unique human kinases [4]) [%] | remaining activity at 10 µM (382 unique human kinases [5]) [%] | remaining activity at 10 µM (382 unique human kinases [6]) [%] | remaining activity at 10 µM (382 unique human kinases [7]) [%] | remaining activity at 10 µM (382 unique human kinases [8]) [%] | remaining activity at 10 µM (382 unique human kinases [9]) [%] | remaining activity at 10 µM (382 unique human kinases [10]) [%] | remaining activity at 10 µM (382 unique human kinases [11]) [%] | remaining activity at 10 µM (382 unique human kinases [12]) [%] | remaining activity at 10 µM (382 unique human kinases [13]) [%] | remaining activity at 10 µM (382 unique human kinases [14]) [%] | remaining activity at 10 µM (382 unique human kinases [15]) [%] | remaining activity at 10 µM (382 unique human kinases [16]) [%] | remaining activity at 10 µM (382 unique human kinases [17]) [%] | further results |
| --- | --- | --- | --- | --- | --- | --- | --- | --- | --- | --- | --- | --- | --- | --- | --- | --- | --- | --- |
| CC(C)c1cc(-c2n[nH]c(=O)n2-c2ccc3c(ccn3C)c2)c(O)cc1O [Ganetespib (STA9090)] | 103 | 87.3 | 84.5 | 68.1 | 108 | 86.3 | 85.7 | 69.1 | 89.6 | 84.8 | 65.1 | 78.9 | – | – | – | – | – | – |
| CC(C)c1cc(-c2n[nH]c(=O)n2-c2ccc3c(ccn3C)c2)c(O)cc1O [Ganetespib] | – | – | – | – | – | – | – | – | – | – | – | – | 99.7 | 108 | 46.7 | 48.1 | 94.8 | – |
| CCNC(=O)c1noc(-c2cc(C(C)C)c(O)cc2O)c1-c1ccc(CN2CCOCC2)cc1 [Luminespib (AUY-922)] | 82.5 | 94.4 | 94.4 | 91.5 | 107 | 98.3 | 102 | 95.8 | 95.1 | 102 | 102 | 111 | – | – | – | – | – | % Enzyme Activity (relative to DMSO controls) (382 unique human kinases [1]): 82.42%; % Enzyme Activity (relative to DMSO controls) (382 unique human kinases [2]): 94.10%; % Enzyme Activity (relative to DMSO controls) (382 unique human kinases [3]): 94.03%; % Enzyme Activity (relative to DMSO controls) (382 unique human kinases [4]): 91.09%; % Enzyme Activity (relative to DMSO controls) (382 unique human kinases [5]): 105.32%; % Enzyme Activity (relative to DMSO controls) (382 unique human kinases [6]): 97.19%; % Enzyme Activity (relative to DMSO controls) (382 unique human kinases [7]): 101.61%; % Enzyme Activity (relative to DMSO controls) (382 unique human kinases [8]): 95.73%; % Enzyme Activity (relative to DMSO controls) (382 unique human kinases [9]): 90.33%; % Enzyme Activity (relative to DMSO controls) (382 unique human kinases [10]): 97.45%; % Enzyme Activity (relative to DMSO controls) (382 unique human kinases [11]): 101.49%; % Enzyme Activity (relative to DMSO controls) (382 unique human kinases [12]): 103.51% |
| CCNC(=O)c1noc(-c2cc(C(C)C)c(O)cc2O)c1-c1ccc(CN2CCOCC2)cc1 [Luminespib] | – | – | – | – | – | – | – | – | – | – | – | – | 104 | 98 | 101 | 99.3 | 92.5 | % Enzyme Activity (relative to DMSO controls) (382 unique human kinases [13]): 103.61%; % Enzyme Activity (relative to DMSO controls) (382 unique human kinases [14]): 96.63%; % Enzyme Activity (relative to DMSO controls) (382 unique human kinases [15]): 100.64%; % Enzyme Activity (relative to DMSO controls) (382 unique human kinases [16]): 94.35%; % Enzyme Activity (relative to DMSO controls) (382 unique human kinases [17]): 91.72% |
